1 compound from patent publication US20070219180A1, “Muscle Relaxtion Accelerator and Therapeutic Agent for Muscular Tissue Diseases Such as Muscle Relaxation Failure” (priority 2004, published 2007) can be followed below.

Experiment [1] deals with T1, troponin I and the actin-tropomyosin complex (Homo sapiens, UniProt P19429).
T1 construct: human myocardium-derived troponin I with a molecular weight of 24 kDa; purchased Calbiochem Inc (troponin I); Abcam PLC (troponin C); SIGMA (actin, tropomyosin); host or cells: troponin I from human myocardium
Description: Experiments 6 and 7: affinity of troponin I and the actin-tropomyosin complex (co-precipitation at defined Ca concentration). The format is binding. The method, then:
A solution of 0.4 μg of troponin I (Calbiochem Inc) and 0.54 μg of troponin C (Abcam PLC) was added to 23 μl of distilled water, distributed to 4 test tubes, and centrifuged at 100,000 g for 1 hour (HITACHI Himac 120FC), and 20 μl of the resulting supernatant was collected and stored at 4° C. Then, 50 μl of 600 mM KCl solution, 50 μl of 200 mM MOPS (3-morpholinopropanesulfonic acid) [3-N (morpholino) propanesulfonic acid] (DOJINDO) solution, 50 μl of 20 mM MgCl2 solution, 5 μl of 10 mg/ml pepstatin A (SIGMA) solution, and 50 μl of 150 mM 2-mercaptoethanol (SIGMA) were added as a reaction solution to 99.4 μl of distilled water, and distributed to another 4 test tubes. Next, 3.2 μl of 1 mg/ml actin (SIGMA) and 2.4 μl of 1 mg/ml tropomyosin (SIGMA) were added and mixed, and the mixture was then centrifuged at 2000 g for 5 minutes at 25° C. using a centrifuge (HITACHI Himac CF7D2). The resulting supernatant was put into 4 new test tubes, 50 μl of 50 mM ATP (adenosine 5′-triphosphate) solution was added, and the solution was incubated at 25° C. with mixing for 30 minutes.
Next, 20 μl of the 100,000 g supernatant of troponin I and troponin C which was previously prepared was added to each test tube, and incubated at 25° C. with mixing for 30 minutes. Distilled water alone or 50 μl of a test solution in which the final concentration of the compound was adjusted to 10^−7, 10^−6 and 10^−5 M was added, and the resulting solution was incubated at 25° C. with mixing for 30 minutes.
[…] The solution was incubated at 25° C. with intermittent mixing for 60 minutes, and then centrifuged at 100,000 g for 120 minutes at 25° C. using a centrifuge (HITACHI Himac 120FC: brand name).
After centrifugation, the supernatant was removed, 1 ml of the reaction liquid (excluding Ca^2+ and the drug) was gently added so as not to suspend any precipitate, and the precipitate was again removed by suction; the procedure was repeated twice and the precipitate washed 3 times in total.
The washing solution was removed completely, 20 μl of a sample buffer for polyacrylamide gel electrophoresis (SDS-PAGE) was added and mixed well, the precipitate was suspended and heated for 5 minutes at 95° C., and then poured into a PAG MINI “No. 1” 10/20 gel (Daiichi Pure Chemicals Co., Ltd) and electrophoresized for about 1 hour at 40 mA. After electrophoresis, the suspension was silver-stained using “Daiichi” 2D-silver staining reagent (Daiichi Pure Chemicals Co., Ltd), and washed and dried. Finally, the suspension was scanned (EPSON ES-8500 scanner: brand name) and analyzed (Image J software: brand name).
In this experiment, at a calcium concentration in the test tube of 10^−6 M, the amount of troponin I precipitated in the absence of the compound was set at 1.0. Relatively, the amount of co-precipitation in the presence of 10^−7, 10^−6 and 10^−5 M concentrations of the compound was 1.4, 3.4, and 5.4, respectively; therefore, it was confirmed that the amount of troponin I precipitate increased with an increase in the compound concentration. The actin used in this experiment was swine skeletal muscle-derived actin with a molecular weight of 43 kDa, and was purchased from SIGMA. Tropomyosin used in this experiment was gizzard-derived tropomyosin with a molecular weight of 36 kDa, and was purchased from SIGMA. Troponin I used in this experiment was human myocardium-derived troponin I with a molecular weight of 24 kDa, and was purchased from Calbiochem Inc. Troponin C used in this experiment was human myocardium recombinant-derived troponin C with a molecular weight of 18 kDa, and was purchased from Abcam PLC. These proteins were separated by SDS-polyacrylamide gel electrophoresis and each band was clearly identifiable. […]

Another experiment deals with white rabbits. Description: Experiment 9: effect of the compound on blood pressure in rabbits. Type of experiment: in vivo, rabbit. The conditions noted are these: for Mean blood pressure relative to before administration (100%): before administration (defined as 100%). How it is done: Effects of the compound on blood pressure were examined in the same way as described in Experiment 2. In this experiment, Control and Tests 6-9 were anesthetized with a single intravenous injection of 20 mg/kg methohexital sodium under artificial respiration (Type AR1Narishige Group) using endotracheal intubation. The 1,4-benzothiazepine derivative or pharmaceutically acceptable salt thereof was used as the compound in this experiment.
Five white rabbits (weight: 2.7-2.9 kg) were used in this experiment: a rabbit (weight: 2.8 kg, Control) that received control solution, a rabbit (weight: 2.7 kg, Test 6) that received the compound at 0.04 mg/kg/min, a rabbit (weight: 2.7 kg, Test 7) that received the compound at 0.04 mg/kg/min, a rabbit (weight: 2.9 kg, Test 8) that received the compound at 0.4 mg/kg/min, and a rabbit (weight: 2.8 kg, Test 9) that received the compound at 0.4 mg/kg/min.
Each rabbit was anesthetized with a single intravenous injection of 20 mg/kg methohexital sodium under artificial respiration (Type AR1 Narishige Group) using endotracheal intubation. Subsequently, α-chloralose was injected into the ear veins at 90 mg/kg/20 min. A DMSO solution of the compound was prepared by dissolving 100 mg of the compound in 1 ml of dimethylsulfoxide (DMSO), and stored at 4° C.
In this experiment, injection catheters for the compound for administration of drugs were inserted into the right external jugular veins of the rabbits and microchip catheters (SPC-320, Millar) for blood pressure measurement were inserted via the right common arteries. A 2-lead electrocardiogram was examined and blood pressure, cardiac rate, and electrocardiogram of the rabbits were monitored for 10 minutes. When the data stabilized, the electrocardiogram, systolic pressure and diastolic pressure of each rabbit were recorded on a personal computer via an A/D converter. The Control rabbit was administered 5% dextrose solution containing 0.1% DMSO as a control solution for 10 minutes at 0.1 ml/min. Test 6 and 7 rabbits were administered 5% dextrose containing the compound at 0.1 ml/min, and then the compound at an infusion rate of 0.04 mg/kg/min. Test 8 and 9 rabbits were administered 5% dextrose containing the compound at 0.1 ml/min, and then the compound at an infusion rate of 0.4 mg/kg/min.
Systolic pressure (mmHg) and diastolic pressure (mmHg) of the Control and Test rabbits were measured over 5 heart beats before administration of the solution, and 5 and 10 minutes after administration. The mean blood pressure (mmHg) was calculated from the systolic pressure (mmHg) and the diastolic pressure (mmHg), using the formula: mean blood pressure (mmHg)=[(systolic pressure+diastolic pressure)×½].

Where [2] appears, read: Ca 10^−6 M, the compound 10^−5 M.

The structures appear in SMILES notation. Several values for one entry are separate records, joined by “and”; a condition that tells them apart may be missing. Equal entries are not always repeated.

With `COc1ccc2c(c1)CN(C(=O)CCN1CCC(Cc3ccccc3)CC1)CCS2` [the compound, 4-[3-(4-benzylpiperidine-1-yl)propionyl]-7-methoxy-2,3,4,5-tetrahydro-1,4-benzothiazepine], the “Amount of precipitate of troponin I, Ratio (Ca 10^−8 M = 1.0)” value in experiment [1] (Ca 10^−5 M, the compound 10^−5 M) was determined as 0.78; in experiment [1] (setting [2]), 0.81; in experiment [1] (Ca 10^−7 M, the compound 10^−5 M) it was 0.94; in experiment [1] (Ca 10^−8 M, the compound 10^−5 M (reference set at 1.0)), 1.0. Besides, the “Amount of precipitate of troponin I, Ratio (no compound = 1.0)” value is 5.4 in experiment [1] (setting [2]); 3.4 in experiment [1] (Ca 10^−6 M, the compound 10^−6 M); 1.4 in experiment [1] (Ca 10^−6 M, the compound 10^−7 M). Also, the Mean blood pressure in the experiment on white rabbits (infusion rate 0.04 mg/kg/min, after 5 minutes) was 79.5 mmHg and 82.0 mmHg; in the experiment on white rabbits (infusion rate 0.04 mg/kg/min, after 10 minutes) it was 85.9 mmHg and 93.4 mmHg; in the experiment with white rabbits (infusion rate 0.04 mg/kg/min, before administration), 85.6 mmHg and 87.7 mmHg; in the experiment on white rabbits (infusion rate 0.4 mg/kg/min, after 5 minutes), 35.7 mmHg and 64.5 mmHg; with white rabbits (infusion rate 0.4 mg/kg/min, after 10 minutes), 41.7 mmHg and 46.3 mmHg; in the experiment with white rabbits (infusion rate 0.4 mg/kg/min, before administration) it was 74.0 mmHg and 97.7 mmHg. The “Mean blood pressure relative to before administration (100%)” value with white rabbits (infusion rate 0.04 mg/kg/min) and in the experiment with white rabbits (infusion rate 0.4 mg/kg/min) was “(100%)” in each case.
